In US20120058133A1, “INHIBITION OF TRNA SYNTHETASES AND THERAPEUTIC APPLICATIONS THEREOF” (President and Fellows of Harvard College, priority 2009, published 2012):

Tests used:
[1] = assay type: in vitro ADME; conditions: mouse, 2 h, 20 nM
Protocol: MEFs were incubated with the indicated concentration of HF in the presence or absence of 2 mM proline for 2 hours and then lysed. Lysates were then tested for HF levels in comparison to a standard curve using known concentrations of HF with an anti-HF antibody based ELISA assay (see Example 9, “Materials and Methods”). Error bars reflect standard deviation of triplicate determinations. Similar results were obtained in three separate experiments.
Polyclonal anti-HF antibody was raised by immunizing rabbits with KLH coupled to an HF derivative (MAZ1356) containing a linker attached to the quinazolinone and terminated by a primary amino group. Crude antibody was affinity purified using MAZ1356 linked to NHS-agarose. For the ELISA assay, MAZ1356 was coupled to 96-well Reacti-bind Plates (Pierce). After binding, plates were blocked with 10% goat serum in PBS/0.2% Tween-20 (PBST). […] Captured antibody was quantitated using TMB based colorimetric detection (Pierce), and a standard curve for HF concentration fitted from the colorimetric data. […] To determine HF concentration in cells, 8 μl of cleared lysate (or control buffer) was incubated with anti-HF antibody in MAZ1356 bound wells, and captured antibody detected and quantitated as described above. HF concentration was then determined by fitting colorimetry results with cell samples to a standard curve of HF concentration. […]

[2] = test system: primary human memory T cells (CD4+ CD45RO+); experiment: IL-17 and IFNγ expression by human memory T cells co-cultured with CD14+ monocytes; assay type: cell-based; conditions: 100 nM HF, 6 days
Protocol: FIG. 2F is a set of FACS analyses of purified primary human memory T cells (CD4^+ CD45RO^+) activated in co-culture with CD14^+ monocytes and treated with DMSO, 100 nM HF or 100 nM MAZ1310. T cells were expanded for 6 days and intracellular cytokine expression was determined following restimulation with PMA plus ionomycin.
Primary murine T and B cells were purified by cell sorting. CD4^+ CD25^− T cells were positively selected using CD4 dynabeads and detachabeads (Dynal—Oslo, Norway) per manufacturers instructions followed by nTreg depletion using a CD25 microbead kit (Miltenyi biotech—Auburn, Calif.). Naïve (CD4^+ CD62Lhi CD44lo Foxp3gfp- or CD4^+ CD62Lhi CD44lo CD25^−) T cells were purified from Foxp3gfp or Foxp3ko mice, respectively, by FACS sorting. CD8^+ T cells or B cells were isolated from CD4^− fractions using CD8 negative isolation kit (Dynal) or CD43 negative isolation kit (Miltenyi biotech), respectively. Resting human CD4^+ T cells were isolated from PBMC of healthy human donors using Dynal CD4 Positive Isolation Kit (Invitrogen—Carlsbad, Calif.) as previously described (Sundrud et al., Blood 106:3440, 2005). CD4^+ cells were further purified to obtain memory T cells by staining with PE-conjugated anti-human CD45RO-PE antibodies (BD Biosciences), and sorting on a FACSAria cytometer (BD Biosciences). Following purification, cells were greater than 99% CD4^+ CD45RO^+. […]

## O=C(CC1NCCCC1O)Cn1cnc2cc(Br)c(Cl)cc2c1=O (racemic) [HF, halofuginone]
[1]
  absolute HF concentration inside cells: ~800 nM
[2]
  IFNγ expression in human T cells: essentially unaffected
  percentage of human T cells expressing IL-17 and amount of IL-17 produced: greatly reduced
